In publication PMC6920875, “Dithiocarbamate as a Valuable Scaffold for the Inhibition of Metallo-β-Lactmases” (Biomolecules, 2019):

Legend:
[1] = target: T1, ImiS (Aeromonas veronii, UniProt O31272); assay: biochemical; parameters: species or system Aeromonas veronii bv. sobria; details: read-out: inhibition against ImiS
T1 construct: made in house; host or cells: E. coli BL21 (DE3), plasmid pET-26b-ImiS
Procedure: (§1) The dithiocarbamates, MβLs and substrates samples were prepared with 30 mM Tris, pH 7.0. […] Enzymes and inhibitors were pre-incubated for 5 min before adding substrate. […] The IC50 values were nonlinearly fitted by plotting the average percentage inhibition against inhibitor concentration. The inhibition modes of DC1 to ImiS, NDM-1 and L1 were assayed by generating Lineweaver–Burk plots, and Ki values were obtained by fitting initial velocity versus substrate concentration at each inhibitor concentration, using SigmaPlot 12.0 (Systat Software Inc., San Jose, CA, USA).
To evaluate the inhibitory activity of the dithiocarbamates, we over-expressed and purified MβLs NDM-1, VIM-2 and IMP-1 (B1), ImiS (B2), and L1 (B3) from three subclasses as previously reported. The inhibition experiments were performed with an Agilent UV8453 spectrometer. […] The concentrations of inhibitors were varied between 0 and 200 μM. The initial reaction rates were determined in the absence and presence of inhibitors in triplicate, and the generated average values were recorded.
Target sequence in this assay (O31272 28-255 limits assumed): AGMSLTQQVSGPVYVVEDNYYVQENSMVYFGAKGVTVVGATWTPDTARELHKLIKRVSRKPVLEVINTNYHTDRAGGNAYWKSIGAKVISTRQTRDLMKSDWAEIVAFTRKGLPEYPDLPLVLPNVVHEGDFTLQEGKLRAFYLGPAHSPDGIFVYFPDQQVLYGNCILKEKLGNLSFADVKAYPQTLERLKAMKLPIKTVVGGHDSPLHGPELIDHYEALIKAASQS

[2] = target: T2, L1 (Stenotrophomonas maltophilia, UniProt P52700); assay: Inhibition kinetics, Lineweaver–Burk plots; format: biochemical
T2 construct: made in house; host or cells: E. coli BL21 (DE3), plasmid pET-26b-L1
Procedure: as §1
(§2) To further identify the inhibition mode of the DCs against MβLs, we performed inhibition kinetics of NDM-1, ImiS and L1 by DC1, at different concentrations, with different substrate concentrations. […] Enzyme and inhibitors were pre-incubated for 5 min before starting the kinetic assays. All experimental hydrolytic rates of substrates were determined in triplicate. The inhibition mode of dithiocarbamates on MβLs was identified by generating Lineweaver–Burk plots, and Ki values were gained by fitting the initial velocity versus substrate concentration at each inhibitor concentration, using SigmaPlot 12.0.

[3] = target: T3, NDM-1 (Klebsiella pneumoniae, UniProt C7C422); assay: Inhibition kinetics, Lineweaver–Burk plots; format: biochemical
T3 construct: made in house; host or cells: E. coli BL21 (DE3), plasmid pET26b-NDM-1
Procedure: as §1, §2

[4] = target: T1, ImiS; assay: Inhibition kinetics, Lineweaver–Burk plots; format: biochemical, Aeromonas veronii bv. sobria
Procedure: as §1, §2
Target sequence in this assay (O31272 28-255): as the sequence (O31272 28-255 limits assumed) above

[5] = target: T1, ImiS; assay: Isothermal titration calorimetry (ITC) of MβL-catalysed substrate hydrolysis; format: biochemical, Aeromonas veronii bv. sobria; details: 100 nM enzyme, 1 mM imipenem, inhibitor 0-200 μM, 25 °C
Procedure: Isothermal titration calorimetry (ITC) assays were performed on a Malvern MicroCal iTC 200 instrument (Malvern Instruments, Malvern, UK) at 25 °C, by a single injection mode. During ITC experiments the reference cell was filled with degassed water. The MβLs, substrates, and inhibitor DC1 were prepared with 50 mM Tris, pH 7.0. The concentration of MβLs used was in the range 100–200 nM, concentration of substrate was 1 mM, and concentrations of DC1 were varied between 0 and 200 µM. Before starting the measurement, the enzyme was pre-incubated with different concentrations of DC1 for 5 min, and then delivered into the sample cell (210 µL). The hydrolysis reaction in the absence of inhibitors was also determined as a control. The stirring rate of the syringe was set to 750 rpm. The system was equilibrated at the desired 25 °C. […] Heat flow was recorded as a function of time. Data were collected every 1 s until the signal reached the baseline and continued to be recorded for the length of time necessary to generate the final baseline.
Isothermal titration calorimetry (ITC) was also employed, to identify the inhibition of the dithiocarbamates on MβLs and study their thermodynamic behaviour. […]
Target sequence in this assay (O31272 28-255 limits assumed): as above

[6] = target: T2, L1; assay: Inhibitor reversibility, activity recovery after rapid 100-fold dilution; format: biochemical; details: 5.8 μM enzyme, 25.3 μM inhibitor, 10 min pre-incubation
Procedure: (§3) It can be observed in Figure 4d–f that the Q value remains almost unchanged in the presence or absence of inhibitors, likely because the formation of the enzyme-inhibitor complex (EI), that slowed down substrate hydrolysis, was reversible. […] We assayed the binding reversibility of DC1 to MβLs by measuring the enzymatic activity recovery after a large, rapid dilution of the MβL-DC1 complex.
(§4) Determination of inhibitor reversibility
(§5) NDM-1, ImiS and L1 were incubated at a concentration of 1.3, 5.0 and 5.8 μM, which is 100-fold over the concentration required for the activity assay, with DC1 at a concentration of 1.5, 0.7 and […]
(§6) After 10 minutes pre-incubation, the recovery of enzymatic activity was determined after rapid and large dilution (100-fold) with the reaction […]
(§7) Figure S2. Recovery of NDM-1 (a), ImiS (b) and L1 (c) activity after rapid dilution of the enzyme-inhibitor complex. The curve in black refers to the control sample pre-incubated and diluted in the absence of inhibitor. Curves in red refer to MβLs pre-incubated with DC1. […]

[7] = target: T3, NDM-1; assay: as above; format: biochemical; details: 1.3 μM enzyme, 10 min pre-incubation
Procedure: as §3, §4, §5, §6, §7

T3 sequence (C7C422 29-270 limits assumed): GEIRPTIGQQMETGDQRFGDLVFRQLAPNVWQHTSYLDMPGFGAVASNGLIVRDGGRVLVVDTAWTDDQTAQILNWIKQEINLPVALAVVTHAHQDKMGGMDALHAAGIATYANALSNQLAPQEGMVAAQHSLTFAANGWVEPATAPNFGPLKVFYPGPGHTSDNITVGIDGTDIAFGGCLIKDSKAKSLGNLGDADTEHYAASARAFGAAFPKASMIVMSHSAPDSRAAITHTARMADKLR
T2 sequence (P52700 34-290): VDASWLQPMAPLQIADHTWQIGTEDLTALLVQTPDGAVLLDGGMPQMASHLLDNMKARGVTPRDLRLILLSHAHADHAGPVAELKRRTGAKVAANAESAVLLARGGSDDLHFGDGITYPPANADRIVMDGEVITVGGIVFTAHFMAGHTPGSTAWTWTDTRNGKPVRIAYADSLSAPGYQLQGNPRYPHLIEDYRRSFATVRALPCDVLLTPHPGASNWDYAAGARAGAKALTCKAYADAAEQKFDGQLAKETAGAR

SMILES: O=C(NNC(=S)[S][K])c1ccccc1O [DC1]
- inhibition at 40 µM [1]: > 90%
- inhibition mode against L1 ([2]; Lineweaver–Burk plots): partially mixed inhibition
- Ki ([2]; read-out: Ki against L1, cefazolin 20-120 µM, inhibitor 0-20 μM, SigmaPlot fit): 5060 nM
- inhibition mode against NDM-1 ([3]; Lineweaver–Burk plots): partially mixed inhibition
- Ki ([3]; read-out: Ki against NDM-1, cefazolin 20-120 µM, inhibitor 0-20 μM, SigmaPlot fit): 290 nM
- inhibition mode against ImiS ([4]; Lineweaver–Burk plots): partially mixed inhibition
- Ki ([4]; read-out: Ki against ImiS, imipenem 20-120 µM, inhibitor 0-20 μM, SigmaPlot fit): 140 nM
- reversibility of inhibition of ImiS by ITC (total heat Q constant) [5]: reversible
- reversibility, recovery of L1 activity after rapid dilution [6]: reversible inhibitor
- reversibility, recovery of NDM-1 activity after rapid dilution [7]: reversible inhibitor
- melting point: 264 to 265 °C
